Patent US20100267712A1, “ISOINDOLINE COMPOUNDS FOR THE TREATMENT OF SPINAL MUSCULAR ATROPHY AND OTHER USES” (The United States of America, as represented by the …, priority 2007, published 2010)

SMILES	melting point
COc1ccc2c(c1)C(=O)N(c1ccc3c(c1)cc(C)n3C)C2 [Example 18, 2-(1,2-dimethyl-1H-indol-5-yl)-6-methoxyisoindolin-1-one]	209 to 213 °C
COc1ccc2c(c1)CN(c1ccc3c(ccn3C)c1)C2 [Example 19, 5-(5-methoxyisoindolin-2-yl)-1-methyl-1H-indole]	193 to 196 °C
COc1ccc2c(c1)C(=O)N(c1ccc3ccn(C)c3c1)C2 [Example 20, 6-methoxy-2-(1-methyl-1H-indol-6-yl)isoindolin-1-one]	158 to 161 °C
CC(=O)Nc1cccc2c1CN(c1ccc3ccn(C)c3c1)C2=O [Example 21, N-(2-(1-methyl-1H-indol-6-yl)-1-oxoisoindolin-4-yl)acetamide]	180 to 184 °C
COc1ccc2c(c1)C(=O)N(c1ccc3ccn(CC#N)c3c1)C2 [Example 22, 2-(6-(6-methoxy-1-oxoisoindolin-2-yl)-1H-indol-1-yl)acetonitrile]	218 to 220 °C
Cn1ccc2ccc(N3Cc4ccc(-c5cccnc5)cc4C3=O)cc21 [Example 24, 2-(1-methyl-1H-indol-6-yl)-6-(pyridin-3-yl)isoindolin-1-one]	187 to 188 °C
COc1ccc2c(c1)CN(c1ccc3sccc3c1)C2=O [Example 25, 2-(benzo[b]thiophen-5-yl)-5-methoxyisoindolin-1-one]	183 to 186 °C
O=C1c2cc(O)ccc2CN1c1ccc2sccc2c1 [Example 26, 2-(benzo[b]thiophen-5-yl)-6-hydroxyisoindolin-1-one]	226 to 228 °C
CCOc1ccc2c(c1)C(=O)N(c1ccc3sccc3c1)C2 [Example 27, 2-(benzo[b]thiophen-5-yl)-6-ethoxyisoindolin-1-one]	127 to 129 °C
Nc1ccc2c(c1)C(=O)N(c1ccc3ccsc3c1)C2 [Example 29, 6-amino-2-(benzo[b]thiophen-6-yl)isoindolin-1-one]	233 to 236 °C

Next, values leading:

melting point	SMILES
195 to 197 °C	CN(C)c1ccc2c(c1)C(=O)N(c1ccc3ccsc3c1)C2 [Example 30, 2-(benzo[b]thiophen-6-yl)-6-(dimethylamino)isoindolin-1-one]
268 to 270 °C	CN(C)c1ccc2c(c1)C(=O)N(c1ccc3c(c1)CCN3C)C2 [Example 31, 6-(dimethylamino)-2-(1-methylindolin-5-yl)isoindolin-1-one]
194 to 197 °C	COc1ccc2c(c1)C(=O)N(c1ccc3ncccc3c1)C2 [Example 32, 6-methoxy-2-(quinolin-6-yl)isoindolin-1-one]
251 to 255 °C	COc1ccc2c(c1)C(=O)N(c1ccc3c(ccc[n+]3[O-])c1)C2 [Example 33, 6-(6-methoxy-1-oxoisoindolin-2-yl)quinoline 1-oxide]
305 to 310 °C	COc1ccc2c(c1)C(=O)N(c1ccc3[nH]c(=O)ccc3c1)C2 [Example 34, 6-(6-methoxy-1-oxoisoindolin-2-yl)quinolin-2(1H)-one]
355 to 360 °C (dec.)	COc1ccc2c(c1)C(=O)N(c1ccc3[nH]c(=O)[nH]c3c1)C2 [Example 35, 5-(6-methoxy-1-oxoisoindolin-2-yl)-1H-benzo[d]imidazol-2(3H)-one]
268 to 270 °C	COc1ccc2c(c1)C(=O)N(c1ccc3c(c1)n(C)c(=O)n3C)C2 [Example 36, 5-(6-methoxy-1-oxoisoindolin-2-yl)-1,3-dimethyl-1H-benzo[d]imidazol-2(3H)-one]
159 to 163 °C	COc1ccc2c(c1)C(=O)N(c1ccc3c(c1)NCCN3)C2 [Example 37, 6-methoxy-2-(1,2,3,4-tetrahydroquinoxalin-6-yl)isoindolin-1-one]
137 to 142 °C	COc1ccc2c(c1)C(=O)N(c1ccc3c(c1)N(C)CCN3C)C2 [Example 38, 2-(1,4-dimethyl-1,2,3,4-tetrahydroquinoxalin-6-yl)-6-methoxyisoindolin-1-one]
